Experimental data as given in article PMC2939296 (Bioorganic & medicinal chemistry letters, 2010).
Values belong to the compound of their own block, whether it stands above or below them.

What was measured:
Human MIF = target: T1, Human MIF (Homo sapiens, UniProt P14174); conditions: cited from earlier work
T1 sequence (P14174 2-115 limits assumed): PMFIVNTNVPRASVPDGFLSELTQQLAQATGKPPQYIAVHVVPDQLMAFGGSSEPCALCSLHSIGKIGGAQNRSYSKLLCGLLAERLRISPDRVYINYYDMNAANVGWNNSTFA

rh-MIF = target: T2, rh-MIF (Homo sapiens, UniProt P14174); experiment: Mass spectrometry; conditions: 30 μM rh-MIF plus 30 μM compound, 1 hr at room temperature in the dark
T2 sequence (P14174 2-115 limits assumed): T1 sequence (P14174 2-115 limits assumed)

MIF-CD74 = target: T3, MIF-CD74 (Homo sapiens, UniProt P14174); conditions: cited from earlier work
T3 sequence (P14174 2-115 limits assumed): T1 sequence (P14174 2-115 limits assumed)

SMILES: Cc1ccc2oc(=O)n(Cc3ccccc3)c2c1 [Cp 1]
mode of inhibition of tautomerase activity (Michaelis-Menten analyses) (Human MIF): competitive inhibitor

covalent adduct with MIF by mass spectrometry (rh-MIF): no additional peaks emerged
SMILES: Cc1ccc2oc(=O)n(Cc3cccc(O)c3)c2c1 [Cp 5]

SMILES: Ic1cc(-c2ccccc2)ncn1 [Cp 4-IPP, 4-iodo-6-phenylpyrimidine]
covalent adduct with MIF by mass spectrometry (rh-MIF): appearance of the covalent adduct at the mass of MIF + ca. 155 Da

SMILES: CC(=O)N=C1C=CC(=O)C=C1 [NAPQI]
effect on MIF tautomerase activity (Human MIF): decreases
effect on MIF receptor binding activity (MIF-CD74): decreases
